Source: ChEMBL document CHEMBL3352238, “Substituted indoles as selective protease activated receptor 4 (PAR-4) antagonists: Discovery and SAR of ML354” (Bioorg Med Chem Lett, 2014)

Experiments:
[1] = Intrinsic clearance in rat; format: ADME, organism-based; conditions: in vivo
[2] = Intrinsic clearance in human; format: ADME, organism-based; conditions: in vivo

CLint scaled [1] [mL/min/kg] | CLint scaled [2] [mL/min/kg] | SMILES
1090 | 75 | CCOC(=O)c1ccc(-c2nn(Cc3ccccc3)c3ccccc23)cc1
359 | 157 | Cn1c(CO)c(-c2ccccc2)c2cc([N+](=O)[O-])ccc21
1160 | 77 | CCOC(=O)c1ccc(-c2cn(Cc3ccccc3)c3ccccc23)cc1
